Test results reported in US20230108049A1, “ORAL FAST-DISPERSING DOSAGE FORM OF RIMEGEPANT” (BIOHAVEN PHARMACEUTICAL HOLDING COMPANY LTD., priority 2020, published 2023).
Entries after “also recorded” stand apart in the source; their conditions may differ. Like-named read-outs stand apart in the source and are kept apart here.

How the values were obtained:
P-gp [1] = target: T1, P-gp (Homo sapiens, UniProt P08183); test: In vitro transporter inhibition; format: in vitro ADME; conditions: at clinically relevant concentrations
[2] = Cardiac electrophysiology (QT interval); format: in vivo, human; conditions: single dose 4 times the recommended dose
male and female rats = test: Fertility study, oral, male and female rats (0, 30, 60, or 150 mg/kg/day); format: in vivo, rat
rats [3] = test: Carcinogenesis study, oral, 91-100 weeks, rats; format: in vivo, rat
[4] = Dedicated clinical study, pharmacokinetics in renal impairment; format: in vivo, human
Protocol: In a dedicated clinical study comparing the pharmacokinetics of rimegepant in subjects with mild (estimated creatinine clearance [CLcr] 60-89 mL/min), moderate (CLcr 30-59 mL/min), and severe (CLcr 15-29 mL/min) renal impairment to that with normal subjects (healthy matched control), the exposure of rimegepant following single 75 mg dose was approximately 40% higher in subjects with moderate renal impairment. […] NURTEC ODT has not been studied in patients with end-stage renal disease (CLcr<15 mL/min) [see Use in Specific Populations].

CYP2B6 [5] = test: In vitro enzyme induction; format: in vitro ADME; conditions: at clinically relevant concentrations
Description: (§1) Rimegepant is a substrate of CYP3A4 and CYP2C9 [see In Vivo Studies].

CYP3A4 [6] = test: In vitro enzyme induction; format: in vitro ADME; conditions: at clinically relevant concentrations
Description: as §1

CYP1A2 [7] = test: In vitro enzyme induction; format: in vitro ADME; conditions: at clinically relevant concentrations
Description: as §1

CYP2C9 [8] = target: T2, CYP2C9 (Homo sapiens, UniProt P11712); test: In vitro enzyme study: substrate / metabolism; format: in vitro ADME; conditions: listed as Rimegepant
Description: as §1

CYP3A4 [9] = target: T3, CYP3A4 (Homo sapiens, UniProt P08684); test: In vitro enzyme study: substrate / metabolism; format: in vitro ADME
Description: as §1

rats [10] = test: Second fertility study, rats, lower doses (0, 5, 15, or 25 mg/kg/day); format: in vivo, rat
healthy volunteers = test: Resting blood pressure on concomitant administration with sumatriptan; format: in vivo, human; conditions: with sumatriptan 12 mg subcutaneous vs sumatriptan alone
Description: The relationship between pharmacodynamic activity and the mechanism(s) by which rimegepant exerts its clinical effects is unknown.

[11] = system: Chinese hamster ovary cells; test: Chromosomal aberration assay (in vitro); format: cell-based
Description: (§2) Rimegepant was negative in in vitro (bacterial reverse-mutation, chromosomal aberration in Chinese hamster ovary cells) and in vivo (rat micronucleus) assays.

MATE2-K = MATE2-K (Homo sapiens, UniProt Q86VL8); test: In vitro transporter inhibition; format: in vitro ADME; conditions: at clinically relevant concentrations
[12] = system: bacterial reverse-mutation; test: Bacterial reverse-mutation assay (in vitro); format: cell-based
Description: as §2

Plasma protein binding = format: in vitro ADME
Description: (§3) The steady state volume of distribution of rimegepant is 120 L. Plasma protein binding of rimegepant is approximately 96%.

CYP3A4 [13] = target: T3, CYP3A4; test: Dedicated drug interaction study with rifampin (strong CYP3A4 inducer); format: in vivo; set-up: endogenous in cells; host or cells: in vivo, endogenous enzyme of the study subjects; conditions: 75 mg single dose with rifampin at steady state
Protocol: No dedicated drug interaction study was conducted to assess the effect of concomitant administration of a moderate or weak inducer of CYP3A4 on the pharmacokinetics of rimegepant.

CYP1A2 [14] = target: CYP1A2 (Homo sapiens, UniProt P05177); test: In vitro enzyme inhibition; format: in vitro ADME; conditions: at clinically relevant concentrations
Description: as §1

CYP2B6 [15] = target: CYP2B6 (Homo sapiens, UniProt P20813); test: In vitro enzyme inhibition; format: in vitro ADME; conditions: at clinically relevant concentrations
Description: as §1

CYP2C9 [16] = target: T2, CYP2C9; test: In vitro enzyme inhibition; format: in vitro ADME; conditions: at clinically relevant concentrations
Description: as §1

CYP2C19 = CYP2C19 (Homo sapiens, UniProt P33261); test: In vitro enzyme inhibition; format: in vitro ADME; conditions: at clinically relevant concentrations
Description: as §1

CYP2D6 = CYP2D6 (Homo sapiens, UniProt P10635); test: In vitro enzyme inhibition; format: in vitro ADME; conditions: at clinically relevant concentrations
Description: as §1

[17] = Excretion after oral [14C]-rimegepant; format: in vivo, human; conditions: oral [14C]-rimegepant, healthy male subjects
Description: (§4) Following oral administration of [^14C]-rimegepant to healthy male subjects, 78% of the total radioactivity was recovered in feces and 24% in urine. Unchanged rimegepant is the major single component in excreted feces (42%) and urine (51%).

[18] = Pharmacokinetic interactions with other drugs (oral contraceptives, midazolam, sumatriptan); format: in vivo, human; conditions: with oral contraceptives (norelgestromin, ethinyl estradiol), midazolam, or sumatriptan
P-gp [19] = target: T1, P-gp; test: In vitro transporter substrate study; format: in vitro ADME
Protocol: (§5) Rimegepant is a substrate of P-gp and BCRP. Concomitant administration of inhibitors of P-gp or BCRP may increase the exposure of rimegepant [see Drug Interactions]. No dedicated drug interaction study was conducted to assess their effects on the pharmacokinetics of rimegepant.

BCRP = BCRP (Homo sapiens, UniProt Q9UNQ0); test: In vitro transporter substrate study; format: in vitro ADME
Protocol: as §5

rat micronucleus = test: Rat micronucleus assay (in vivo)
Description: as §2

[20] = Pharmacokinetics in other specific populations; format: in vivo, human; conditions: based on age, sex, race/ethnicity, body weight, or CYP2C9 genotype
clinical = conditions: human, in vivo
Protocol: Following oral administration of NURTEC ODT, rimegepant is absorbed with the maximum concentration at 1.5 hours.
as §3, §4

T3 sequence (P08684 whole entry): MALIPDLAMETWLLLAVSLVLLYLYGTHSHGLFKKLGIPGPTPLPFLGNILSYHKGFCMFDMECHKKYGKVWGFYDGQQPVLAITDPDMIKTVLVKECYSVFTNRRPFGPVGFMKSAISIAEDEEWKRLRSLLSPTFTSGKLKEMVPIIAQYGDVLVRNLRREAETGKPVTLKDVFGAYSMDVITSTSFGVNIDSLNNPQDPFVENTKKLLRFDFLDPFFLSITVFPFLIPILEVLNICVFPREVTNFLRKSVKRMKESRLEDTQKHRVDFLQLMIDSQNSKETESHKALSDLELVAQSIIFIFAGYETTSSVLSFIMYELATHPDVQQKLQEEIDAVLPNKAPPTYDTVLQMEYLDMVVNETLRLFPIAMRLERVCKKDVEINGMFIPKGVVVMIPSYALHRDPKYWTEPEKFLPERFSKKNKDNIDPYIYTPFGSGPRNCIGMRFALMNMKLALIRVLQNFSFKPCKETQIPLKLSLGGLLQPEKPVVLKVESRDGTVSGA
T2 sequence (P11712 whole entry): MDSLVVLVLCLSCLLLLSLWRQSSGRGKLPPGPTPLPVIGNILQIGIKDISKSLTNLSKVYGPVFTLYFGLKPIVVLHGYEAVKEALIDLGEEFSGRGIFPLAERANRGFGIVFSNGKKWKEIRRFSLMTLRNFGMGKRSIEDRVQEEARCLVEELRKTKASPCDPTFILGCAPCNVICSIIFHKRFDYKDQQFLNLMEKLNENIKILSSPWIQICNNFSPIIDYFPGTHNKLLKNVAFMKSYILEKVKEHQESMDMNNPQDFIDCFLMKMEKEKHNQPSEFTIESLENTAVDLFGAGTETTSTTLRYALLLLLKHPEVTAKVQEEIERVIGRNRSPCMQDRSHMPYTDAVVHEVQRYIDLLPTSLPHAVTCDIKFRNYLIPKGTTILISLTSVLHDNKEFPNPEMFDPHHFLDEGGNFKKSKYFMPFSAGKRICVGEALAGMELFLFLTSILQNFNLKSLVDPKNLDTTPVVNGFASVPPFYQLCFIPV
T1 sequence (P08183 whole entry): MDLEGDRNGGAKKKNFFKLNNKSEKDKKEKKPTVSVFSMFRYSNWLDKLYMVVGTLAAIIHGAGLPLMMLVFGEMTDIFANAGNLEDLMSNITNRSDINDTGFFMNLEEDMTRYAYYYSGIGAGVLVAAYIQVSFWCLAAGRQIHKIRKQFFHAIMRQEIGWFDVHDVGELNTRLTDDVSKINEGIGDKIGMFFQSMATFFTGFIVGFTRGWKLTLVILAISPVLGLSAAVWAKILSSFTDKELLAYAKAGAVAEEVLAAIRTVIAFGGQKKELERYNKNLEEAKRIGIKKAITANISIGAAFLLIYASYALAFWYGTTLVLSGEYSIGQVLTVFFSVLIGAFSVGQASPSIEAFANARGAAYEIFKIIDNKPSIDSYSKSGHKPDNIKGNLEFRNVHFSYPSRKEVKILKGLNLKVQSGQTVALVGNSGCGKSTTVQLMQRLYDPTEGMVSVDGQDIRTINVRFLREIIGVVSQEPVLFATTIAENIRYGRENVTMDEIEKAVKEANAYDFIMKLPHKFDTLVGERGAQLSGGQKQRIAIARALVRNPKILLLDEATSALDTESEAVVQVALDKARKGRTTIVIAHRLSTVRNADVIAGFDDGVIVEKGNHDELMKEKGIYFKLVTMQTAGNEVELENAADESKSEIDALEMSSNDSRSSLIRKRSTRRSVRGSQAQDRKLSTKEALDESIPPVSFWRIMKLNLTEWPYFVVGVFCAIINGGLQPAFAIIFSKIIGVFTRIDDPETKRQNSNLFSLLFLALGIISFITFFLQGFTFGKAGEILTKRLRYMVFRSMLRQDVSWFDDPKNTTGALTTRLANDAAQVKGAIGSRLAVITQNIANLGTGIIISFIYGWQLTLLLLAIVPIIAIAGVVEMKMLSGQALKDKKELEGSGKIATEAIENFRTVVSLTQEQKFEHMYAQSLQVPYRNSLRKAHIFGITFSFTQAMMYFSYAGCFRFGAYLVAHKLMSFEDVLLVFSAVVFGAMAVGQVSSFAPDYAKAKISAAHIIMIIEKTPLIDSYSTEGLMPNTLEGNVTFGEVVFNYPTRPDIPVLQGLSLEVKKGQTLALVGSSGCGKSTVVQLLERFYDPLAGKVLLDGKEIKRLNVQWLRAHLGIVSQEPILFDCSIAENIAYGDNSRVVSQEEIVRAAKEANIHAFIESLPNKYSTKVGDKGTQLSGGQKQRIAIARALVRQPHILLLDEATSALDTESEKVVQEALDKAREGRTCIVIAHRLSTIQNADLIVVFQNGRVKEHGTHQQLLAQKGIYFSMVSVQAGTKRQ
Sequence of CYP2C19 (P33261 whole entry): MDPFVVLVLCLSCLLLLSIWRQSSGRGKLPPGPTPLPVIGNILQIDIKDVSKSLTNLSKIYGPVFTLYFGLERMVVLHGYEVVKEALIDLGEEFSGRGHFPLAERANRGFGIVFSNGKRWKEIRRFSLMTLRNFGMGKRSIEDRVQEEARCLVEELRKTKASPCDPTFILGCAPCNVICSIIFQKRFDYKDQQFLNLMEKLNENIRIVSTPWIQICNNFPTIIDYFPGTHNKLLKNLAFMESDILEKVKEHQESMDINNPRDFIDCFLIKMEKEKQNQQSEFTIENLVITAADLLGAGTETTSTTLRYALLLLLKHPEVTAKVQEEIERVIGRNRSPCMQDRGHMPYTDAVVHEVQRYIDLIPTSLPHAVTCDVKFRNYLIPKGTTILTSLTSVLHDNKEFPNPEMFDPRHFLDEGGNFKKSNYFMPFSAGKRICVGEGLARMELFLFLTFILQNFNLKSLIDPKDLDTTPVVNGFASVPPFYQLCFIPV
Sequence of CYP2B6 (Homo sapiens, UniProt P20813) (P20813 whole entry): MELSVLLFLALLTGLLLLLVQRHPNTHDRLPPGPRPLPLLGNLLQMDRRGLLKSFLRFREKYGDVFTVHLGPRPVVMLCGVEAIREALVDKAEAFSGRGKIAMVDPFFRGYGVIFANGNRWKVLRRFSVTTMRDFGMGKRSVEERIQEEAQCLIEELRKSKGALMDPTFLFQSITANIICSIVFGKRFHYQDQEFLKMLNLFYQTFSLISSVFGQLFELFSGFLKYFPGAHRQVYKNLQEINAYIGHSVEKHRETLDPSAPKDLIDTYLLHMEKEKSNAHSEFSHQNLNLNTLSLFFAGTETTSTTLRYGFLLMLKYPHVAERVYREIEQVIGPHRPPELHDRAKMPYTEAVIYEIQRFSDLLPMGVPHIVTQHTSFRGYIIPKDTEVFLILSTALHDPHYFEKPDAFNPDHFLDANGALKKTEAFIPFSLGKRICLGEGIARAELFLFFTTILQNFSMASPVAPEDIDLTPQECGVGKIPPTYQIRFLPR
Sequence of CYP1A2 (Homo sapiens, UniProt P05177) (P05177 whole entry): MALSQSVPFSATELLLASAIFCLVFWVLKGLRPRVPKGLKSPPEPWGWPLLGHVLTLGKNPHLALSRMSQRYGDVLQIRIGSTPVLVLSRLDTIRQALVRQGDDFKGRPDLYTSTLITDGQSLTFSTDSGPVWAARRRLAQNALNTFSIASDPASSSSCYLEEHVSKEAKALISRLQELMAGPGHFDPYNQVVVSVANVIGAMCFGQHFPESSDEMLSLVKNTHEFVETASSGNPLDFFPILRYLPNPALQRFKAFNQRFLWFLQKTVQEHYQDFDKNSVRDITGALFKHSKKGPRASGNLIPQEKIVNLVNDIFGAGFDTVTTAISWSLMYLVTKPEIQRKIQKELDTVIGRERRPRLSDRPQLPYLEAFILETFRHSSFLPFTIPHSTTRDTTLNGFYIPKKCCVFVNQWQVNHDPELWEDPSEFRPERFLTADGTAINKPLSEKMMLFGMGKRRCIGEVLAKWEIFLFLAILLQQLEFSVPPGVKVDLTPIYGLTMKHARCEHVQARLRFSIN
Sequence of BCRP (Q9UNQ0 whole entry): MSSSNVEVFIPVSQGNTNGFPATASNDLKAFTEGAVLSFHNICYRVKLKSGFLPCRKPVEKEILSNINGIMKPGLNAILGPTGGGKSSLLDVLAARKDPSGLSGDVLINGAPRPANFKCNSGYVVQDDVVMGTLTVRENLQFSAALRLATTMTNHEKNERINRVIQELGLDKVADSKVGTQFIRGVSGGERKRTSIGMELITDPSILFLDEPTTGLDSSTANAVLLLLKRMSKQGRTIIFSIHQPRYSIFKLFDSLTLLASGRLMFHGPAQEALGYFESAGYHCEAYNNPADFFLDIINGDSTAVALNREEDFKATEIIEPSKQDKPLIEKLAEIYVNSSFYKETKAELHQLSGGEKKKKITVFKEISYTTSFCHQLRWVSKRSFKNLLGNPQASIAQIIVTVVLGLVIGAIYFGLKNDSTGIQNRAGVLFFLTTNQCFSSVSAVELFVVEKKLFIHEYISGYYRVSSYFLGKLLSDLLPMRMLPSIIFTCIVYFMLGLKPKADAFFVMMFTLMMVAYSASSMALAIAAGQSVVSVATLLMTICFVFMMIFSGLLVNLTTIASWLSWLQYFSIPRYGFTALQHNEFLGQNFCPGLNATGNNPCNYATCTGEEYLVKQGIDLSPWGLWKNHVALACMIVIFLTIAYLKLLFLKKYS
Sequence of CYP2D6 (P10635 whole entry): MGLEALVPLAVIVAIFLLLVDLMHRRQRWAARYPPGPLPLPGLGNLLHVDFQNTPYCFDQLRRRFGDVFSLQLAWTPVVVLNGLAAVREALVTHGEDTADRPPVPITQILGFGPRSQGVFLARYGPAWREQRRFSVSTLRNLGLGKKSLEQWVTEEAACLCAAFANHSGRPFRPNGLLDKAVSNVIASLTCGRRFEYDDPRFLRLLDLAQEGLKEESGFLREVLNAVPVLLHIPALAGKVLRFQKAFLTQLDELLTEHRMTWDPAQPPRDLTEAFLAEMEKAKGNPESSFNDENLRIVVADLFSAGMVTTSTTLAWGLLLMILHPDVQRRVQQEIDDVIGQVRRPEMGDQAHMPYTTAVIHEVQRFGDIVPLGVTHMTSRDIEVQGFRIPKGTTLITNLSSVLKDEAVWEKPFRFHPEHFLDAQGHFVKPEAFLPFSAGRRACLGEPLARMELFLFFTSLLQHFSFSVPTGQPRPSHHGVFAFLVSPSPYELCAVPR

N[C@@H]1c2cccnc2[C@H](OC(=O)N2CCC(n3c(=O)[nH]c4ncccc43)CC2)CC[C@H]1c1cccc(F)c1F [rimegepant, (5S,6S,9R)-5-amino-6-(2,3-difluorophenyl)-6,7,8,9-tetrahydro-5H-cyclohepta[b]pyridin-9-yl 4-(2-oxo-2,3-dihydro-1H-imidazo[4,5-b]pyridin-1-yl)-1-piperidinecarboxylate]
inhibition of P-gp (P-gp [1]): not an inhibitor | QT interval prolongation [2]: does not prolong the QT interval to any clinically relevant extent | fertility (male and female rats; highest dose tested (150 mg/kg/day)): reduced fertility at the highest dose tested | uterine histopathology (male and female rats; oral 30, 60, or 150 mg/kg/day, prior to and during mating, females to GD 7): uterine atrophy at all doses | plasma exposure (AUC) relative to humans at the MRHD of 75 mg/day (rats [3]; highest dose tested (45 mg/kg/day)): approximately 30 times | drug-induced tumors (rats [3]; oral 0, 5, 20, or 45 mg/kg/day for 91-100 weeks): no evidence of drug-induced tumors | difference in exposure vs normal renal function ([4]; severe renal impairment (CLcr 15-29 mL/min)): no clinically meaningful difference | exposure higher than in normal subjects ([4]; single 75 mg dose, moderate renal impairment (CLcr 30-59 mL/min)): approximately 40% | induction of CYP2B6 (CYP2B6 [5]): not an inducer | induction of CYP3A4 (CYP3A4 [6]): not an inducer | induction of CYP1A2 (CYP1A2 [7]): not an inducer | substrate of / metabolized by CYP2C9 (CYP2C9 [8]): substrate | substrate of / metabolized by CYP3A4 (CYP3A4 [9]): moderately sensitive substrate | substrate of / metabolized by CYP3A4 (CYP3A4 [9]; listed as Rimegepant): primarily metabolized; also recorded: substrate | effects on fertility, uterine histopathology, early embryonic development (rats [10]; 0, 5, 15, or 25 mg/kg/day): no adverse effects on fertility, uterine histopathology, or early embryonic development | plasma drug exposures (AUC) relative to humans at the MRHD (rats [10]; at the no-effect dose (25 mg/kg/day)): approximately 15 times | no-effect dose for impairment of fertility and early embryonic development (rats [10]; rats): 25 mg/kg/day | resting blood pressure (healthy volunteers): No clinically relevant differences in resting blood pressure | mutagenesis, chromosomal aberration [11]: negative | inhibition of MATE2-K (MATE2-K): not an inhibitor | mutagenesis, bacterial reverse-mutation [12]: negative | fraction unbound (Plasma protein binding): ~0.04 | decrease of rimegepant AUC (CYP3A4 [13]): 80% | decrease of rimegepant Cmax (CYP3A4 [13]): 64% | inhibition of CYP1A2 (CYP1A2 [14]): not an inhibitor | inhibition of CYP2B6 (CYP2B6 [15]): not an inhibitor | inhibition of CYP2C9 (CYP2C9 [16]): not an inhibitor | inhibition of CYP2C19 (CYP2C19): not an inhibitor | inhibition of CYP2D6 (CYP2D6): not an inhibitor | unchanged rimegepant in excreted feces [17]: 42% | unchanged rimegepant in excreted urine [17]: 51% | pharmacokinetic interactions [18]: No significant pharmacokinetic interactions | substrate of P-gp (P-gp [19]): substrate | substrate of BCRP (BCRP): substrate | mutagenesis, rat micronucleus (rat micronucleus): negative | differences in pharmacokinetics [20]: No clinically significant differences | eliminated in unchanged form (clinical): ~77 % of the dose | half-life (clinical): ~660 min | major metabolites (i.e., >10%) in plasma (clinical): no major metabolites | bioavailability (clinical; po): ~64%
